Measured values published in US10323038B2, “Pyrazole compounds and methods of making and using same” (ABIDE THERAPEUTICS, INC., priority 2015, dated 2019).

How the values were obtained:
MAGL = MAGL (Mus musculus (Mouse), UniProt O35678); assay: In vitro competitive activity-based protein profiling, MAGL (mouse); type: biochemical; conditions: for inhibition at 1 µM: read-out: MAGL % inh. 1 μM (mouse)
Summary of the method: (§1)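 Residual MAGL and FAAH activity quantified from fluorescent gel bands after SDS-PAGE. Before that, FP-Rh or HT-01 probe (50 μM stock) labelled for 30 min at 37 °C, following 30 min inhibitor preincubation. Mouse assays used brain membrane fraction or cell lysates, human used prefrontal cortex or cell membranes, all at 1.0 mg/mL protein.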

FAAH = FAAH (Mus musculus (Mouse), UniProt O08914); assay: In vitro competitive activity-based protein profiling, FAAH (mouse); type: biochemical; conditions: for inhibition at 1 µM: read-out: FAAH % inh. 1 μM (mouse)
Chain of FAAH (O08914 whole entry): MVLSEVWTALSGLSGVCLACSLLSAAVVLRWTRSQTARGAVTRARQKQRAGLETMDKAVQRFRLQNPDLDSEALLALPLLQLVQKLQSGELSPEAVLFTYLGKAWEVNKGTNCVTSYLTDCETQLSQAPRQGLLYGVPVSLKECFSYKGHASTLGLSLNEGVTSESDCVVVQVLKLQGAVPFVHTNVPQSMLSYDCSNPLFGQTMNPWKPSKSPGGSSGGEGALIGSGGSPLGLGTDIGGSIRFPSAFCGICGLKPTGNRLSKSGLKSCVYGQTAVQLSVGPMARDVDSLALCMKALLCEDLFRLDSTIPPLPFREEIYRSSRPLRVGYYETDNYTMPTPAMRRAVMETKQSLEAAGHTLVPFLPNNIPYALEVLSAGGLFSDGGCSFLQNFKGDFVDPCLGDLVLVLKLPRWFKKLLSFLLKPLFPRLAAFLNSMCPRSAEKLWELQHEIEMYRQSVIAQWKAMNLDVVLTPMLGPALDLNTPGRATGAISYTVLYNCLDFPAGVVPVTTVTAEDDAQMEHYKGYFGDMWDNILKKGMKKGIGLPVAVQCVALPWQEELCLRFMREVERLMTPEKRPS
Summary of the method: as §1

Chain of MAGL (O35678 whole entry): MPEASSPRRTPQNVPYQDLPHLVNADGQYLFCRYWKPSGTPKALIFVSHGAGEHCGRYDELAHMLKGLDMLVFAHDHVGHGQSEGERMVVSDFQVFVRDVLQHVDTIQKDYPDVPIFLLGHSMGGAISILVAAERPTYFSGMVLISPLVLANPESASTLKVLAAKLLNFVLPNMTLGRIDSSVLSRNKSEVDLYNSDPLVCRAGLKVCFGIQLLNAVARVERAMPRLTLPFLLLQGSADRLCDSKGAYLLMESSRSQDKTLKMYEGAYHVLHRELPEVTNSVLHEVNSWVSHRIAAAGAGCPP

Row | inhibition at 1 µM (MAGL) | inhibition at 1 µM (FAAH) | IC50 (MAGL) | IC50 (FAAH) | Structure (SMILES)
1 | ≥ 75% | ≥ 75% | 0.1 to 1 µM | 0.1 to 1 µM | CC(=O)N(C)c1cnn(C(=O)N2CCC3(CCN(Cc4ccc(C(F)(F)F)cc4)C3)C2)c1 (stereo not drawn) [Example 2, N-methyl-N-(1-(7-(4-(trifluoromethyl)benzyl)-2,7-diazaspiro[4.4]nonane-2-carbonyl)-1H-pyrazol-4-yl)acetamide]
2 | ≥ 75% | ≥ 75% | ≤ 0.1 µM | ≤ 0.1 µM | CC(=O)N(C)c1cnn(C(=O)N2CC3CN(Cc4ccc(N5CCOCC5)cc4Cl)CC3C2)c1 (stereo not drawn) [Example 16, N-(1-(5-(2-chloro-4-morpholinobenzyl)octahydropyrrolo[3,4-c]pyrrole-2-carbonyl)-1H-pyrazol-4-yl)-N-methylacetamide]
3 | ≥ 75% | ≥ 75% | ≤ 0.1 µM | ≤ 0.1 µM | CC(=O)N(C)c1cnn(C(=O)N2C[C@H]3C[C@H](N(C)Cc4cc(Cl)ccc4C(F)(F)F)C[C@H]3C2)c1 [Example 164, N-(1-(trans-5-((5-chloro-2-(trifluoromethyl)benzyl)(methyl)amino)octahydrocyclopenta[c]pyrrole-2-carbonyl)-1H-pyrazol-4-yl)-N-methylacetamide]
4 | 50 to 75% | ≥ 75% | 1 to 10 µM | 0.1 to 1 µM | COc1cccc(CN2CC3CN(C(=O)n4cc(N(C)C(C)=O)cn4)CC3C2)c1 (stereo not drawn) [Example 181, N-(1-(5-(3-methoxybenzyl)octahydropyrrolo[3,4-c]pyrrole-2-carbonyl)-1H-pyrazol-4-yl)-N-methylacetamide]
5 | ≥ 75% | ≥ 75% | – | – | CC(=O)N(C)c1cnn(C(=O)N2CC3CN(Cc4cc(N5CCCC5)ccc4C(F)(F)F)CC3C2)c1 (stereo not drawn) [Example 127, N-methyl-N-(1-(5-(5-(pyrrolidin-1-yl)-2-(trifluoromethyl)benzyl)octahydropyrrolo[3,4-c]pyrrole-2-carbonyl)-1H-pyrazol-4-yl)acetamide]
6 | ≥ 75% | ≥ 75% | 0.1 to 1 µM | 0.1 to 1 µM | CC(=O)N(C)c1cnn(C(=O)N2CCN(Cc3cccc(F)c3)CC2)c1 [Example 205, N-(1-(4-(3-fluorobenzyl)piperazine-1-carbonyl)-1H-pyrazol-4-yl)-N-methylacetamide]
7 | ≥ 75% | ≥ 75% | ≤ 0.1 µM | ≤ 0.1 µM | CC(=O)N(C)c1cnn(C(=O)N2CC3CN(Cc4ccc(Cl)c(C(F)(F)F)c4)CC3C2)c1 (stereo not drawn) [Example 98, N-(1-(5-(4-chloro-3-(trifluoromethyl)benzyl)octahydropyrrolo[3,4-c]pyrrole-2-carbonyl)-1H-pyrazol-4-yl)-N-methylacetamide]
8 | ≥ 75% | ≥ 75% | – | – | CC(=O)N(C)c1cnn(C(=O)N2CC3CN(Cc4ccc(-c5cncnc5)cc4Cl)CC3C2)c1 (stereo not drawn) [Example 259, N-(1-(5-(2-chloro-4-(pyrimidin-5-yl)benzyl)octahydropyrrolo[3,4-c]pyrrole-2-carbonyl)-1H-pyrazol-4-yl)-N-methylacetamide]
9 | ≥ 75% | ≥ 75% | – | – | CC(=O)N(C)c1cnn(C(=O)N2C[C@H]3C[C@@H](N(C)Cc4cc(N5CCCC5)cc(C(F)(F)F)c4)C[C@H]3C2)c1 [Example 154, N-methyl-N-(1-(cis-5-(methyl(3-(pyrrolidin-1-yl)-5-(trifluoromethyl)benzyl)amino)octahydrocyclopenta[c]pyrrole-2-carbonyl)-1H-pyrazol-4-yl)acetamide]
10 | ≥ 75% | 25 to 50% | – | – | CC(=O)N(C)c1cnn(C(=O)N2C[C@H]3C[C@@H](N(Cc4cccc(Cl)c4)C(C)=O)C[C@H]3C2)c1 [Example 170, N-(3-chlorobenzyl)-N-(cis-2-(4-(N-methylacetamido)-1H-pyrazole-1-carbonyl)octahydrocyclopenta[c]pyrrol-5-yl)acetamide]
11 | ≥ 75% | ≥ 75% | ≤ 0.1 µM | ≤ 0.1 µM | CC(=O)N(C)c1cnn(C(=O)N2CC3CN(Cc4cccc(C(F)(F)F)c4)CC3C2)c1 (stereo not drawn) [Example 117, N-methyl-N-(1-(5-(3-(trifluoromethyl)benzyl)octahydropyrrolo[3,4-c]pyrrole-2-carbonyl)-1H-pyrazol-4-yl)acetamide]
12 | ≥ 75% | ≥ 75% | ≤ 0.1 µM | ≤ 0.1 µM | CC(=O)N(C)c1cnn(C(=O)N2CC3CN(Cc4cc(Cl)cc(N5CCCC5)c4)CC3C2)c1 (stereo not drawn) [Example 110, N-(1-(5-(3-chloro-5-(pyrrolidin-1-yl)benzyl)octahydropyrrolo[3,4-c]pyrrole-2-carbonyl)-1H-pyrazol-4-yl)-N-methylacetamide]

The next lines start with the molecule.

Row | Structure (SMILES) | inhibition at 1 µM (MAGL) | inhibition at 1 µM (FAAH) | IC50 (MAGL) | IC50 (FAAH)
13 | CC(=O)N(C)c1cnn(C(=O)N2CCN(Cc3ccc(CN4CCOCC4)cc3)CC2)c1 [Example 199, N-methyl-N-(1-(4-(4-(morpholinomethyl)benzyl)piperazine-1-carbonyl)-1H-pyrazol-4-yl)acetamide] | 50 to 75% | 0 to 25% | – | –
14 | CC(=O)N(C)c1cnn(C(=O)N2CCC3(CCN(Cc4cccc(Cl)c4Cl)C3)C2)c1 (stereo not drawn) [Example 59, N-(1-(7-(2,3-dichlorobenzyl)-2,7-diazaspiro[4.4]nonane-2-carbonyl)-1H-pyrazol-4-yl)-N-methylacetamide] | ≥ 75% | ≥ 75% | 0.1 to 1 µM | ≤ 0.1 µM
15 | CC(=O)N(C)c1cnn(C(=O)N2CCN(Cc3ccc(C(F)(F)F)cc3N3CCCC3)CC2)c1 [Example 191, N-methyl-N-(1-(4-(2-(pyrrolidin-1-yl)-4-(trifluoromethyl)benzyl)piperazine-1-carbonyl)-1H-pyrazol-4-yl)acetamide] | ≥ 75% | 25 to 50% | ≤ 0.1 µM | 0.1 to 1 µM
16 | CC(=O)N(C)c1cnn(C(=O)N2CCN(Cc3ccc(N4CCOCC4)cc3C)CC2)c1 [Example 204, N-methyl-N-(1-(4-(2-methyl-4-morpholinobenzyl)piperazine-1-carbonyl)-1H-pyrazol-4-yl)acetamide] | ≥ 75% | ≥ 75% | 0.1 to 1 µM | 0.1 to 1 µM
17 | CC(=O)N(C)c1cnn(C(=O)N2CCC3(CCN(Cc4ccc(Cl)cc4)C3)CC2)c1 [Example 188, N-(1-(2-(4-chlorobenzyl)-2,8-diazaspiro[4.5]decane-8-carbonyl)-1H-pyrazol-4-yl)-N-methylacetamide] | ≥ 75% | ≥ 75% | 0.1 to 1 µM | 0.1 to 1 µM
18 | CC(=O)N(C)c1cnn(C(=O)N2C[C@H]3C[C@@H](N(C)Cc4cc(Cl)ccc4Cl)C[C@H]3C2)c1 [Example 162, N-(1-(cis-5-((2,5-dichlorobenzyl)(methyl)amino)octahydrocyclopenta[c]pyrrole-2-carbonyl)-1H-pyrazol-4-yl)-N-methylacetamide] | ≥ 75% | ≥ 75% | – | –
19 | CN(Cc1ccccc1C(F)(F)F)[C@H]1C[C@@H]2CN(C(=O)n3cc(NS(C)(=O)=O)cn3)C[C@@H]2C1 [Example 299, N-(1-(trans-5-(methyl(2-(trifluoromethyl)benzyl)amino)octahydrocyclopenta[c]pyrrole-2-carbonyl)-1H-pyrazol-4-yl)methanesulfonamide] | ≥ 75% | ≥ 75% | – | –
20 | CC(=O)N(C)c1cnn(C(=O)N2CC3(CCN(Cc4cccc(C)c4)CC3)C2)c1 [Example 83, N-methyl-N-(1-(7-(3-methylbenzyl)-2,7-diazaspiro[3.5]nonane-2-carbonyl)-1H-pyrazol-4-yl)acetamide] | 25 to 50% | 25 to 50% | – | –
21 | C#Cc1ccc(CN2CCN(C(=O)n3cc(N(C)C(C)=O)cn3)CC2)cc1 [Example 317, N-(1-(4-(4-ethynylbenzyl)piperazine-1-carbonyl)-1H-pyrazol-4-yl)-N-methylacetamide] | ≥ 75% | ≥ 75% | – | –
22 | CC(=O)Nc1cnn(C(=O)N2CCN(Cc3cc(Cl)ccc3C(F)(F)F)CC2)c1 [Example 314, N-(1-(4-(5-chloro-2-(trifluoromethyl)benzyl)piperazine-1-carbonyl)-1H-pyrazol-4-yl)acetamide] | ≥ 75% | ≥ 75% | – | –
23 | CS(=O)(=O)Nc1cnn(C(=O)N2CCN(Cc3ccc(-c4ccccc4)cc3Cl)CC2)c1 [Example 221, N-(1-(4-((3-chloro-[1,1′-biphenyl]-4-yl)methyl)piperazine-1-carbonyl)-1H-pyrazol-4-yl)methanesulfonamide] | ≥ 75% | ≥ 75% | 0.1 to 1 µM | ≤ 0.1 µM
24 | CN(Cc1cc(Cl)ccc1C(F)(F)F)[C@H]1C[C@@H]2CN(C(=O)n3cc(NS(C)(=O)=O)cn3)C[C@@H]2C1 [Example 278, N-(1-[[trans-5-([[5-chloro-2-(trifluoromethyl)phenyl]methyl](methyl)amino)-octahydrocyclopenta[c]pyrrol-2-yl)carbonyl]-1H-pyrazol-4-yl)methanesulfonamide] | ≥ 75% | ≥ 75% | – | –
25 | COc1ccccc1CN1CCN(C(=O)n2cc(N(C)C(C)=O)cn2)CC1 [Example 213, N-(1-(4-(2-methoxybenzyl)piperazine-1-carbonyl)-1H-pyrazol-4-yl)-N-methylacetamide] | ≥ 75% | 0 to 25% | – | –
26 | CS(=O)(=O)Nc1cnn(C(=O)N2CCN(Cc3cc(Cl)cc(C(F)(F)F)c3)CC2)c1 [Example 294, N-(1-(4-(3-chloro-5-(trifluoromethyl)benzyl)piperazine-1-carbonyl)-1H-pyrazol-4-yl)methanesulfonamide] | ≥ 75% | ≥ 75% | – | –
27 | CC(=O)N(C)c1cnn(C(=O)N2CCN(Cc3ccc(Cl)c(Cl)c3)CC2)c1 [Example 196, N-(1-(4-(3,4-dichlorobenzyl)piperazine-1-carbonyl)-1H-pyrazol-4-yl)-N-methylacetamide] | ≥ 75% | ≥ 75% | – | 0.1 to 1 µM
